# From ChEMBL document CHEMBL1153375, “Synthesis and antibacterial activities of N-glycosylated derivatives of tyrocidine A, a macrocyclic peptide antibiotic” (2009)
# Active and inactive are the calls of the source. No cut-off for these calls is given here.
# Tests used:
# [1] = test system: Bacillus subtilis; experiment: Antibacterial activity against Bacillus subtilis CMCC-B 63501 by twofold serial dilution method; format: functional
# [2] = test system: Bacillus subtilis; experiment: Antibacterial activity against Bacillus subtilis CMCC-B 63501 up to 500 ug/ml by twofold serial dilution method; format: functional, organism-based
# [3] = Bacillus subtilis, read-out: MIC
SMILES,"MIC [1, 3] [µg/mL]",Activity [2],further results
"CC(=O)N[C@@H]1[C@@H](O)[C@H](O)[C@@H](CO)O[C@H]1NC(=O)C[C@@H]1NC(=O)C(Cc2ccccc2)NC(=O)[C@H](Cc2ccccc2)NC(=O)[C@@H]2CCCN2C(=O)C(Cc2ccccc2)NC(=O)[C@H](CC(C)C)NC(=O)[C@H](CCCN)NC(=O)[C@H](C(C)C)NC(=O)[C@H](Cc2ccc(O)cc2)NC(=O)[C@H](CCC(N)=O)NC1=O (single isomer, unassigned)",–,inactive,–
"CC(=O)N[C@@H]1[C@@H](O)[C@H](O[C@@H]2O[C@H](CO)[C@@H](O)[C@H](O)[C@H]2NC(C)=O)[C@@H](CO)O[C@H]1NC(=O)C[C@@H]1NC(=O)C(Cc2ccccc2)NC(=O)[C@H](Cc2ccccc2)NC(=O)[C@@H]2CCCN2C(=O)C(Cc2ccccc2)NC(=O)[C@H](CC(C)C)NC(=O)[C@H](CCCN)NC(=O)[C@H](C(C)C)NC(=O)[C@H](Cc2ccc(O)cc2)NC(=O)[C@H](CCC(N)=O)NC1=O (single isomer, unassigned)",–,inactive,–
CC(C)C[C@@H]1NC(=O)[C@H](CCCN)NC(=O)[C@H](C(C)C)NC(=O)[C@H](Cc2ccc(O)cc2)NC(=O)[C@H](CCC(N)=O)NC(=O)[C@H](CC(N)=O)NC(=O)[C@@H](Cc2ccccc2)NC(=O)[C@H](Cc2ccccc2)NC(=O)[C@@H]2CCCN2C(=O)[C@@H](Cc2ccccc2)NC1=O (stereo in doubt) [TYROCIDINE A],–,–,MIC [1]: 20 µg/mL

# More lines, main results first:
"MIC [1, 3] [µg/mL]",SMILES,Activity [2],further results
62,"CC(C)C[C@@H]1NC(=O)[C@H](CCCN)NC(=O)[C@H](C(C)C)NC(=O)[C@H](Cc2ccc(O)cc2)NC(=O)[C@H](CCC(N)=O)NC(=O)[C@H](CC(=O)NCCO[C@@H]2O[C@H](CO)[C@@H](O[C@@H]3O[C@H](CO)C(O)[C@H](O)[C@H]3O)[C@H](O)[C@H]2O)NC(=O)C(Cc2ccccc2)NC(=O)[C@H](Cc2ccccc2)NC(=O)[C@@H]2CCCN2C(=O)C(Cc2ccccc2)NC1=O (single isomer, unassigned)",–,–
31,CC(C)C[C@@H]1NC(=O)[C@H](CCCN)NC(=O)[C@H](C(C)C)NC(=O)[C@H](Cc2ccc(O)cc2)NC(=O)[C@H](CCC(N)=O)NC(=O)[C@H](CC(N)=O)NC(=O)[C@@H](Cc2ccccc2)NC(=O)[C@H](Cc2ccccc2)NC(=O)[C@@H]2CCCN2C(=O)[C@@H](Cc2ccccc2)NC1=O (stereo in doubt; 1) [TYROCIDINE A],–,–
